Data as given in patent US20080109040A1, “METHOD OF TREATING ARRHYTHMIAS” (priority 2002, published 2008).
Like-named read-outs stand apart in the source and are kept apart here. Marks after values point to notes of the source that are not given here.

How the values were obtained:
[1] = tested on: anesthetized dog; test: QT prolongation and arrhythmia induction in anesthetized dog with AV block and phenylephrine challenge; details: for Arrhythmia occurrence: individual dogs; for Mean ERP LV / Mean ERP RY: sot 8 + 4
Description: Dogs were pretreated with Atravet (0.07 mg/kg sc) and then 15 minutes later anesthetized with ketamine (5.3 mg/kg iv) and valium (0.25 mg/kg iv) followed by isoflurane (1-2%), intubated and subjected to mechanical ventilation. They were then subjected to AV block with radiofrequency ablation. A median sternotomy was performed and catheters were inserted into a femoral artery for blood pressure (BP) recording and into both femoral veins for infusion of test drugs. Bipolar electrodes were inserted into both ventricles for programmed stimulation determination of refractory periods (extrastimulus technique), as well as for evaluation of QT interval and QRS duration at various controlled basic cycle lengths (BCLs). TdP was induced by challenges of phenylephrine, which were given as bolus intravenous doses of 10, 20, 30, 40 and 50 μg/kg. After each dose, the ECG was monitored continuously to detect arrhythmias. […] Test drug effects were evaluated as per protocols below.
Data are presented as the mean ±S.E.M. Statistical comparisons were made with Student's t test. A 2-tailed probability<0.05 was taken to indicate statistical significance. In data tables, * denotes P<0.05, **P<0.01.
Group 2 (6 dogs): Five dogs received ranolazine as a 0.5 mg/kg iv load followed by a first, a second and a third continuous iv infusion of 1.0, 3.0 and 15 mg/kg/hr, respectively. One dog received ranolazine as a 1.5 mg/kg iv load followed by infusions of 15 and 30 mg/kg/hr. […] The phenylephrine challenges were then given, with all doses given at each drug infusion rate, and any arrhythmias monitor.

[2] = tested on: guinea pig ventricular myocytes; test: Action potential duration, EADs and triggered activity in guinea pig ventricular myocytes
Description: Single ventricular myocytes were isolated from the hearts of adult, male guinea pigs (Harlan). In brief, the hearts were perfused with warm (35° C.) and oxygenated solutions in the following order: 1) Tyrode solution containing (in mmol/L) 140 NaCl, 4.6 KCl, 1.8 CaCl2, 1.1 MgSO4, 10 glucose and 5 HEPES, pH 7.4, for 5 minutes; 2) Ca^2+-free solution containing (in mmol/L) 100 NaCl, 30 KCl, 2 MgSO4, 10 glucose, 5 HEPES, 20 taurine, and 5 pyruvate, pH 7.4, for 5 minutes; and 3) Ca^2+-free solution containing sollagenase (120 units/ml) and albumin (2 mg/ml), for 20 minutes. At the end of the perfusion, the ventricles were removed, minced, and gently shaken for 10 minutes in solution #3. Isolated cells were harvested from the cell suspension.
Myocytes were placed into a recording chamber and superfused with Tyrode solution at 35° C. Drugs were applied via the superfusate. Action potentials were measured using glass microelectrodes filled with a solution containing (in mmol/L) 120 K-aspartate, 20 KCl, 1 MgCl2, 4 Na2ATP, 0.1 Na3GTP, 10 glucose, 1 EGTA and 10 HEPES (pH 7.2). Microelectrode resistance was 1-3 MΩ. An Axopatch-200 amplifier, a DigiData-1200A interface and pCLAMP6 software were used to perform electrophysiological measurements. Action potentials were induced by 5-ms depolarizing pulses applied at various frequencies as indicated. The duration of action potential was measured at 50% (APD50) and 90% (APD90) repolarization.
1) Ventricular myocytes were electrically stimulated at a frequency of 0.5, 1 or 2 Hz. Each myocyte was treated with 3, 10 and 30 μmol/L ranolazine. The effect of ranolazine on action potential duration at each pacing frequency was determined from 4 myocytes.
2) Action potentials were elicited at a frequency of 0.25 Hz, and the effect of ranolazine (10 μmol/L) on action potential duration was examined in the presence of 5 μmol/L quinidine. Experiments were performed on 4 myocytes.
Following the procedures and protocols of Example 21, guinea pig ventricular myocytes were electrically stimulated in the presence of ranolazine either alone or in the presence of ATX II [a sea anemone toxin known to mimic LQT3 syndrome by slowing Na^+-channel inactivation from the open state and thereby increasing the peak and late Na^+ current (INa) of cardiomyocytes]. ATXII is known to induce early afterdepolarizations (EADs) and triggered activity and ventricular tachycardia.
Action potentials were recorded using the whole-cell patch-electrode technique. Ventricular monophasic action potentials and electrograms were recorded from isolated hearts.
The ventricular APD of guinea pigs isolated myocytes and hearts was measured, respectively, at 50% (APD50) and 90% (MAPD90) repolarization.

[3] = tested on: guinea pig isolated heart; test: K-H buffer perfused guinea pig isolated heart: MAP duration, EADs and VT
Description: To study the effect of ranolazine on ATXII induced MAP (monophasic action potential) duration prolongation, EADs and ventricular tachyarrhythmia (VT), the K—H buffer perfused guinea pig isolated heart model was used.
Multiple EADs and sustained depolarizations were frequently observed.

CC(C)NCC(O)c1ccc(NS(C)(=O)=O)cc1 (racemic) [sotalol, reference compound]
Arrhythmia occurrence ([1]; Sot 8 + 4 plus phenylephrine 10 μg/kg, — = none): death | Arrhythmia occurrence ([1]; Sot 8 + 4 plus phenylephrine 30 μg/kg): death | Arrhythmia occurrence ([1]; Sot 8 + 4 plus phenylephrine 40 μg/kg): tdp VF death | Arrhythmia occurrence ([1]; Sot 8 + 4 plus phenylephrine 50 μg/kg): death | Effect on QRS duration ([1]; dog, in vivo): did not affect | Mean ERP LV ([1]; BCL 300): 201.25 ± 18.75 ms | Mean ERP RY ([1]; BCL 300): 181.33 ± 8.21** ms | Mean ERP LV ([1]; BCL 400): 226.25 ± 21.25 ms | Mean ERP RY ([1]; BCL 400): 195.67 ± 7.53** ms | Mean ERP LV ([1]; BCL 600): 262.50 ± 27.5* ms | Mean ERP RY ([1]; BCL 600): 223.50 ± 9.07** ms | Mean ERP LV ([1]; BCL 1000): 286.25 ± 16.25* ms | Mean ERP RY ([1]; BCL 1000): 255.50 ± 9.56** ms | Death from torsade de pointes degenerating to ventricular fibrillation ([1]; sotalol infusion and a phenylephrine bolus): All the dogs eventually died

CCS(=O)(=O)N(C)[C@H]1c2cc(C#N)ccc2OC(C)(C)[C@@H]1O [293B, reference compound]
Induction of EADs [2]: induced EADs in the presence, but not in the absence, of ATX-II | Increase of APD50 ([2]; 293B 30 μmol/L, absence of ATX-II): 40±7% | Increase of APD50 ([2]; 293B 30 μmol/L, presence of ATX-II): 202±59% | Increase of MAPD90 ([3]; 293B 1 μmol/L alone): 6.3±0.2% | Increase of MAPD90 ([3]; 293B applied with ATX-II): 31.6±0.1%

Cc1cccc(CCN2CCC(C(=O)c3ccc(NS(C)(=O)=O)cc3)CC2)n1 [E-4031, reference compound]
Increase of APD50 ([2]; E-4031 1 μmol/L, absence of ATX-II): 11±2% | Increase of APD50 ([2]; E-4031 1 μmol/L, presence of ATX-II): 104±41% | Increase of MAPD90 ([3]; E-4031 1 μmol/L alone): 30.1±0.1% | Increase of MAPD90 ([3]; E-4031 applied with ATX-II): 127.1±0.4%

C=C[C@H]1C[N@@]2CC[C@H]1C[C@@H]2[C@@H](O)c1ccnc2ccc(OC)cc12 [quinidine, reference compound]
Effect on duration of action potential ([2]; quinidine 5 μmol/L, 0.25 Hz): increased the duration of action potential

ATXII: a sea anemone toxin known to mimic LQT3 syndrome by slowing Na+-channel inactivation from the open state [reference compound]
Increase of APD50 ([2]; ATX-II 3 nmol/L alone): 6±2% | Induction of EADs ([2]; ATX-II 10-20 nmol/L): induced EADs in all cells | APD50 in the presence of ATX-II ([2]; ATX-II 10-20 nmol/L, n=24): 1,148±49 ms | Induction of EADs ([2]; ATXII 10-40 nmol/L): induced EADs in all cells | APD50 in the presence of ATXII ([2]; ATXII 10-40 nmol/L, n=20): 1,154±61 ms | Increase of MAPD90 ([3]; ATX-II 7 nmol/L alone): 32±0.1% | Isolated hearts with EADs and (polymorphic) VT ([3]; ATXII 10-20 nM): 10/14 | Prolongation of MAPD90 ([3]; ATXII 10-20 nM, 4 hearts without rapid ventricular arrhythmia): 6% | Isolated hearts with EADs and (polymorphic) VT ([3]; ATXII 10-20 nM, listed as ATX-II): 10 of 14
